Reference: patent US5126336A, “Antibiotic C-3 catechol-substituted cephalosporin compounds, compositions and method of use thereof” (Bristol-Myers Squibb Company, priority 1990, dated 1992)
≈ marks a conversion by molar mass, not a printed value.

Assays:
Assay in all cases: MIC, agar dilution
Format in all cases: cell-based
C. freundii GN 7391 = settings: Citrobacter freundii, GN7391, Mueller-Hinton agar pH 7.2, 32° C., 18 hr, 10^6 cells/ml
Experimental: (§1) Minimum inhibitory concentrations (MICs) of the present series of cephalosporins were determined against 32 strains of test organisms by two-fold serial agar dilution method in Mueller-Hinton agar. Geometric means of MICs were calculated against six groups of the test organisms which are classified as follows and summarized in Table 1.
(§2) Medium; MuellerHinton agar (pH = 7.2)
(§3) Incubation temperature: 32° C., 18 hr
(§4) Inoculum size; 10^6 cells/ml

P. aeruginosa A20599 = settings: Pseudomonas aeruginosa, Mueller-Hinton agar pH 7.2, 32° C., 18 hr, 10^6 cells/ml
Experimental: as §1, §2, §3, §4

M. morgani 1510/9 = settings: Mueller-Hinton agar pH 7.2, 32° C., 18 hr, 10^6 cells/ml
Experimental: as §1, §2, §3, §4

P. aeruginosa KKA 19 = settings: Pseudomonas aeruginosa, KKA19, Mueller-Hinton agar pH 7.2, 32° C., 18 hr, 10^6 cells/ml
Experimental: as §1, §2, §3, §4

S. epidermidis 11-1230 = settings: Staphylococcus epidermidis, 111230, Mueller-Hinton agar pH 7.2, 32° C., 18 hr, 10^6 cells/ml
Experimental: as §1, §2, §3, §4

P. vulgaris IPM-13 = settings: Proteus vulgaris, IPM13, Mueller-Hinton agar pH 7.2, 32° C., 18 hr, 10^6 cells/ml
Experimental: as §1, §2, §3, §4

E. faecium A24817 = settings: Enterococcus faecium, Mueller-Hinton agar pH 7.2, 32° C., 18 hr, 10^6 cells/ml
Experimental: as §1, §2, §3, §4

P. cepacia A21213 = settings: Burkholderia cepacia, Mueller-Hinton agar pH 7.2, 32° C., 18 hr, 10^6 cells/ml
Experimental: as §1, §2, §3, §4

P. aeruginosa IPM-8 = settings: Pseudomonas aeruginosa, IPM8, Mueller-Hinton agar pH 7.2, 32° C., 18 hr, 10^6 cells/ml
Experimental: as §1, §2, §3, §4

S. aureus 4-1015 (MRSA) = settings: Staphylococcus aureus, Mueller-Hinton agar pH 7.2, 32° C., 18 hr, 10^6 cells/ml
Experimental: as §1, §2, §3, §4

S. aureus IPM-24 (MRSA) = settings: Staphylococcus aureus, Mueller-Hinton agar pH 7.2, 32° C., 18 hr, 10^6 cells/ml
Experimental: as §1, §2, §3, §4

P. cepacia No. 651 = settings: Burkholderia cepacia, Mueller-Hinton agar pH 7.2, 32° C., 18 hr, 10^6 cells/ml
Experimental: as §1, §2, §3, §4

K. pneumoniae PCI 602 = settings: Klebsiella pneumoniae, PCI602, Mueller-Hinton agar pH 7.2, 32° C., 18 hr, 10^6 cells/ml
Experimental: as §1, §2, §3, §4

P. aeruginosa IPM-9 = settings: Pseudomonas aeruginosa, IPM9, Mueller-Hinton agar pH 7.2, 32° C., 18 hr, 10^6 cells/ml
Experimental: as §1, §2, §3, §4

E. faecalis A9808 = settings: Enterococcus faecalis, Mueller-Hinton agar pH 7.2, 32° C., 18 hr, 10^6 cells/ml
Experimental: as §1, §2, §3, §4

S. aureus 209P = settings: Staphylococcus aureus; S. aureus 209P; Mueller-Hinton agar pH 7.2; 32° C., 18 hr; 10^6 cells/ml; read-out: MIC
Experimental: as §1, §2, §3, §4

P. rettgeri IPM-14 = settings: Providencia rettgeri, IPM14, Mueller-Hinton agar pH 7.2, 32° C., 18 hr, 10^6 cells/ml
Experimental: as §1, §2, §3, §4

S. marcescens IPM-15 = settings: Serratia marcescens, IPM15, Mueller-Hinton agar pH 7.2, 32° C., 18 hr, 10^6 cells/ml
Experimental: as §1, §2, §3, §4

X. maltophilia GN 12873 = settings: Stenotrophomonas maltophilia, GN12873, Mueller-Hinton agar pH 7.2, 32° C., 18 hr, 10^6 cells/ml
Experimental: as §1, §2, §3, §4

S. marcescens IPM-16 = settings: Serratia marcescens, IPM16, Mueller-Hinton agar pH 7.2, 32° C., 18 hr, 10^6 cells/ml
Experimental: as §1, §2, §3, §4

B. subtilis PCI 219 = settings: Bacillus subtilis, PCI219, Mueller-Hinton agar pH 7.2, 32° C., 18 hr, 10^6 cells/ml
Experimental: as §1, §2, §3, §4

E. cloacae IPM-12 = settings: Enterobacter cloacae, IPM12, Mueller-Hinton agar pH 7.2, 32° C., 18 hr, 10^6 cells/ml
Experimental: as §1, §2, §3, §4

M. morgani 1510 = settings: Mueller-Hinton agar pH 7.2, 32° C., 18 hr, 10^6 cells/ml
Experimental: as §1, §2, §3, §4

E. coli 255 = settings: Escherichia coli, Mueller-Hinton agar pH 7.2, 32° C., 18 hr, 10^6 cells/ml
Experimental: as §1, §2, §3, §4

M. luteus 1001 = settings: Micrococcus luteus, Mueller-Hinton agar pH 7.2, 32° C., 18 hr, 10^6 cells/ml
Experimental: as §1, §2, §3, §4

C. terrigena IFO 12685 = settings: Mueller-Hinton agar pH 7.2, 32° C., 18 hr, 10^6 cells/ml
Experimental: as §1, §2, §3, §4

X. maltophilia No. 661 = settings: Stenotrophomonas maltophilia, Mueller-Hinton agar pH 7.2, 32° C., 18 hr, 10^6 cells/ml
Experimental: as §1, §2, §3, §4

P. mirabilis IFO-2849 = settings: Proteus mirabilis, IFO2849, Mueller-Hinton agar pH 7.2, 32° C., 18 hr, 10^6 cells/ml
Experimental: as §1, §2, §3, §4

P. aeruginosa A9843A = settings: Pseudomonas aeruginosa, A9843A, 18 h, pH 7.2
Experimental: as §1
(§5) In vivo antibacterial activity was determined against three bacterial infections (S. aureus Smith, E. coli Juhl and P. aeruginosa A9843A) by intramuscular administration to mice just after the bacterial challenge. PD50 values are summarized in Table 3 in comparsion with the MIC values against the corresponding organisms.
as §2, §3, §4

E. coli Juhl A15119 = settings: Escherichia coli, JUHLA15119; E. coli Juhl A15119; Mueller-Hinton agar pH 7.2; 32° C., 18 hr; 10^6 cells/ml; read-out: MIC
Experimental: as §1, §5, §2, §3, §4

S. aureus Smith = settings: Staphylococcus aureus; S. aureus Smith; Mueller-Hinton agar pH 7.2; 32° C., 18 hr; 10^6 cells/ml; read-out: MIC
Experimental: as §1, §5, §2, §3, §4

| SMILES | MIC (C. freundii GN 7391) | MIC (P. aeruginosa A20599) | MIC (M. morgani 1510/9) | MIC (P. aeruginosa KKA 19) | MIC (S. epidermidis 11-1230) | MIC (P. vulgaris IPM-13) | MIC (E. faecium A24817) | MIC (P. cepacia A21213) | MIC (P. aeruginosa IPM-8) | MIC (S. aureus 4-1015 (MRSA)) | MIC (S. aureus IPM-24 (MRSA)) | MIC (P. cepacia No. 651) | MIC (K. pneumoniae PCI 602) | MIC (P. aeruginosa IPM-9) | MIC (E. faecalis A9808) | MIC (S. aureus 209P) | MIC (P. rettgeri IPM-14) | MIC (S. marcescens IPM-15) | MIC (X. maltophilia GN 12873) | MIC (S. marcescens IPM-16) | further results |
| --- | --- | --- | --- | --- | --- | --- | --- | --- | --- | --- | --- | --- | --- | --- | --- | --- | --- | --- | --- | --- | --- |
| CC(C)(O/N=C(\C(=O)NC1C(=O)N2C(C(=O)O)=C(/C=C/Cn3cnc4cc(O)c(O)cc43)CS[C@H]12)c1csc(N)n1)C(=O)O (some centres unmarked) [Io, 7-[(Z)-2-(2-Aminothiazol-4-yl)-2-(1-methyl-1-carboxyethoxy-imino)acetamido]-3-[(E)-3-(5,6-dihydroxybenzimidazol-1-yl)-1-propen-1-yl]-3-cephem-4-carboxylic acid] | 25 µg/mL (≈ 38.8 µM) | 0.8 µg/mL (≈ 1.24 µM) | 0.8 µg/mL (≈ 1.24 µM) | 0.8 µg/mL (≈ 1.24 µM) | 50 µg/mL (≈ 77.7 µM) | 50 µg/mL (≈ 77.7 µM) | > 100 µg/mL | 6.3 µg/mL (≈ 9.79 µM) | 0.4 µg/mL (≈ 0.621 µM) | > 100 µg/mL | 100 µg/mL (≈ 155 µM) | 6.3 µg/mL (≈ 9.79 µM) | 0.05 µg/mL (≈ 0.0777 µM) | 25 µg/mL (≈ 38.8 µM) | > 100 µg/mL | 12.5 µg/mL (≈ 19.4 µM) | 1.6 µg/mL (≈ 2.49 µM) | > 100 µg/mL | 3.1 µg/mL (≈ 4.82 µM) | 25 µg/mL (≈ 38.8 µM) | MIC (B. subtilis PCI 219): 12.5 µg/mL (≈ 19.4 µM); MIC (E. cloacae IPM-12): 12.5 µg/mL (≈ 19.4 µM); MIC (M. morgani 1510): 3.1 µg/mL (≈ 4.82 µM); MIC (E. coli 255): 0.2 µg/mL (≈ 0.311 µM); MIC (M. luteus 1001): 6.3 µg/mL (≈ 9.79 µM); MIC (C. terrigena IFO 12685): 3.1 µg/mL (≈ 4.82 µM); MIC (X. maltophilia No. 661): 1.6 µg/mL (≈ 2.49 µM); MIC (P. mirabilis IFO-2849): 0.2 µg/mL (≈ 0.311 µM); MIC (P. aeruginosa A9843A): 0.4 µg/mL (≈ 0.621 µM); MIC (E. coli Juhl A15119): 1.6 µg/mL (≈ 2.49 µM); MIC (S. aureus Smith): 25 µg/mL (≈ 38.8 µM) |
| CO/N=C(\C(=O)NC1C(=O)N2C(C(=O)O)=C(/C=C/Cn3cnc4cc(O)c(O)cc43)CS[C@H]12)c1csc(N)n1 (some centres unmarked) [Iu, 7-[(Z)-2-(2-aminothiazol-4-yl)-2-methoxyiminoacetamido]-3-[(E)-3-(5,6-dihydroxybenzimidazol-1-yl)-1-propen-1-yl]-3-cephem-4-carboxylic acid] | 100 µg/mL (≈ 175 µM) | 6.3 µg/mL (≈ 11 µM) | 0.4 µg/mL (≈ 0.7 µM) | 100 µg/mL (≈ 175 µM) | 50 µg/mL (≈ 87.5 µM) | > 100 µg/mL | > 100 µg/mL | > 100 µg/mL | 25 µg/mL (≈ 43.7 µM) | 50 µg/mL (≈ 87.5 µM) | > 100 µg/mL | > 100 µg/mL | 0.05 µg/mL (≈ 0.0875 µM) | 100 µg/mL (≈ 175 µM) | 100 µg/mL (≈ 175 µM) | 6.3 µg/mL (≈ 11 µM) | 0.8 µg/mL (≈ 1.4 µM) | > 100 µg/mL | > 100 µg/mL | > 100 µg/mL | MIC (B. subtilis PCI 219): 3.1 µg/mL (≈ 5.42 µM); MIC (E. cloacae IPM-12): > 100 µg/mL; MIC (M. morgani 1510): 25 µg/mL (≈ 43.7 µM); MIC (E. coli 255): 0.8 µg/mL (≈ 1.4 µM); MIC (M. luteus 1001): 0.8 µg/mL (≈ 1.4 µM); MIC (C. terrigena IFO 12685): 1.6 µg/mL (≈ 2.8 µM); MIC (X. maltophilia No. 661): > 100 µg/mL; MIC (P. mirabilis IFO-2849): 0.1 µg/mL (≈ 0.175 µM); MIC (P. aeruginosa A9843A): 6.3 µg/mL (≈ 11 µM); MIC (E. coli Juhl A15119): 0.2 µg/mL (≈ 0.35 µM); MIC (S. aureus Smith): 6.3 µg/mL (≈ 11 µM) |
